Data taken from PMC6272893, “NO-Releasing Enmein-Type Diterpenoid Derivatives with Selective Antiproliferative Activity and Effects on Apoptosis-Related Proteins” (Molecules, 2016).

Tests used:
Bel-7402 cells [1] = assay: Annexin V-FITC/PI apoptosis assay; format: cell-based, human; settings: 24 h, control 8.27%
Procedure: The Bel-7402 cells were seeded in 6-well plates to grow overnight, and then treated with or without 10f at indicated concentrations in triplicate for 24 h. Cells were then washed twice in PBS and resuspended in annexin V binding buffer. Annexin V-FITC was then added and the mixture was incubated for 15 min under dark conditions at 25 °C. PI was added just prior to acquisition. Apoptosis was analyzed using annexin V and PI double-staining by flow cytometry according to the manufacturer’s instructions in order to detect apoptotic cells.
Figure 5 Apoptosis in Bel-7402 cells by treatment with 10f: Bel-7402 cells were incubated with different concentrations of 10f for 24 h and the cells were stained with annexin V-FITC and PI, followed by flow cytometry analysis. TEXT PRINTED IN THE PICTURE: Control: 2.67%; 2.37%; 89.06%; 5.90% | no label printed: 2.07% (1.0 μM); 4.15% (1.0 μM); 74.53% (1.0 μM); 19.26% (1.0 μM); 5.69% (1.5 μM); 15.20% (1.5 μM); 55.99% (1.5 μM); 23.12% (1.5 μM); 3.33% (2.0 μM); 26.65% (2.0 μM); 37.87% (2.0 μM); 32.15% (2.0 μM) DOUBTS OF THE COPYIST ABOUT THIS PICTURE: The picture prints no compound label for the treated plots, only the concentrations 1.0 μM, 1.5 μM and 2.0 μM, so the substance is left empty. / The picture prints no measure or quadrant name for the percentages. Each plot's values are given in the order upper left, upper right, lower left, lower right.

Bel-7402 cells [2] = assay: Cell cycle study by PI flow cytometry; format: cell-based, human; settings: for G2 phase cells: control 20.72%; for cells at the S phase: control 34.65%
Procedure: Progression through the cell cycle was assessed by flow cytometry DNA determination with PI. Bel-7402 cells were plated in 6-well plates (5.0 × 10^3 cells/well) and incubated at 37 °C for 24 h. Exponentially growing cells were then incubated with tested compound at a certain concentration in triplicate. Untreated cells (control) or cells treated with the solvent (DMSO) of the compound were included. After 48 h treatment, cells were centrifuged and fixed in 70% ethanol at 4 °C overnight and subsequently resuspended in PBS containing 100 μL RNase A and 400 μL PI. Cellular DNA content, for cell cycle distribution analysis, was measured using a flow cytometer (FACS Calibur Becton-Dickinson, Franklin Lake, NJ, USA).
Figure 4 Influence of the cell cycle arrest of S phase by 10f in Bel-7402 cells: Bel-7402 cells were incubated with the indicated concentrations of 10f for 24 h and the cells were stained with propidium iodide (PI). Cellular DNA content, for cell cycle distribution analysis, was measured using a flow cytometer. The diagrams show the distribution of the cells according to their DNA content. The inserts give the percentages of cells in different cell cycle phases. TEXT PRINTED IN THE PICTURE: Control group: G1: 44.64%; S: 34.65%; G2: 20.72% | no label printed: G1: 42.41% (1 μM); S: 40.27% (1 μM); G2: 17.32% (1 μM); G1: 43.10% (1.5 μM); S: 48.11% (1.5 μM); G2: 8.79% (1.5 μM); G1: 40.63% (2 μM); S: 53.34% (2 μM); G2: 6.02% (2 μM) DOUBTS OF THE COPYIST ABOUT THIS PICTURE: The picture prints no label for the treated substance, only the concentrations 1 μM, 1.5 μM and 2 μM, so the substance is left blank and the concentrations are given as conditions. / Control group is an untreated reference, not a substance. It is listed because the picture prints its values under that label.

MGC-803 cells = assay: MTT antiproliferative assay, MGC-803; format: cell-based, human
Procedure: (§1) Cytotoxicity assay in vitro was employed by the MTT assay following the methodology described previously, which was performed in flat-bottomed 96-well plates. In short, exponentially growing MGC-803 cells at the log phase were added to each well at a density of 5 × 10^3 per well, then treated with serial dilutions of the compounds in three replicates at various concentrations (0.039–40 µg/mL). After 72 h, 20 µL of MTT solution (5 mg/mL) per well was added to each cultured medium. Then, DMSO was added to each well (150 µL/well). After 10 min at room temperature, the absorbance (OD) was read on a microplate reader at the wavelength of 490 nm (BIO-RAD Instruments Inc. 550, Hercules, CA, USA). In these experiments, taxol was used as the positive reference with the concentration of 10 µg/mL.

L-02 normal liver cells = assay: MTT antiproliferative assay, L-02; format: cell-based
Procedure: [The source words this procedure for another cell line and reports this cell line under the same test.] as §1

[3] = test system: apoptosis-related proteins in Bel-7402 cells; assay: Western blot of apoptosis-related proteins; format: cell-based, human; settings: 10f 1.0, 1.5 and 2.0 μM, 48 h, concentration-dependent
Procedure: Bel-7402 cells were incubated in triplicate with different doses (1.0, 1.5 and 2.0 μM) of 10f for 48 h. After the protein concentrations were determined, individual cell lysates were separated by sodium dodecyl sulfate polyacrylamide gel electrophoresis (10% gel, SDS-PAGE) and transferred onto nitrocellulose membranes. After being blocked with 5% fat-free milk, the target proteins in the membranes were probed with monoclonal anti-Bax (KGA714), anti-Bcl2 (KGA715), anti-caspase 3 (KGA717), anti-caspase 9 (KGA720), anti-cyto C (KGA723), and anti-β-actin antibodies (KGA731, KeyGEN Biotech, Nanjing, China), respectively. The relative levels of each signaling event to control β-actin were determined by densimetric scanning.
Figure 7 Western blotting of 10f on the expression of apoptosis-related proteins in Bel-7402 cells. 1: negative control; 2: 2.0 μM; 3: 1.5 μM; 4: 1.0 μM.

CaEs-17 cells = assay: MTT antiproliferative assay, CaEs-17; format: cell-based, human
Procedure: [The source words this procedure for another cell line and reports this cell line under the same test.] as §1

Bel-7402 cells [4] = assay: MTT antiproliferative assay, Bel-7402; format: cell-based, human
Procedure: [The source words this procedure for another cell line and reports this cell line under the same test.] as §1

Bel-7402 cells [5] = assay: Mitochondrial membrane potential assay (JC-1); format: cell-based, human; settings: 48 h, control 3.28%
Procedure: […] The percentage of cells with healthy or collapsed mitochondrial membrane potentials was monitored by flow cytometry analysis.
Figure 6 Effect of 10f on the mitochondrial membrane potentials of Bel-7402 cells: Bel-7402 cells were incubated with the indicated concentrations of 10f for 48 h prior to staining with JC-1. […] In each plot the first value is in the upper right quadrant and the second in the lower right quadrant.

K562 cells = assay: MTT antiproliferative assay, K562; format: cell-based, human
Procedure: [The source words this procedure for another cell line and reports this cell line under the same test.] as §1

## C=C1C(=O)C23C(=O)OC4CCC(C)(C)C5C(=O)OCC45C2CCC1C3OC(=O)c1ccccc1C(=O)OCCCOc1no[n+]([O-])c1S(=O)(=O)c1ccccc1 (stereo not shown) [Compound 10f]
other
  melting point: 151 to 154 °C
Bel-7402 cells [1]; 10f 1.0 μM
  apoptotic cell rates (early and late): 23.41%
Bel-7402 cells [1]; 10f 1.5 μM
  apoptotic cell rates (early and late): 38.32%
Bel-7402 cells [1]; 10f 2.0 μM
  apoptotic cell rates (early and late): 58.80%
Bel-7402 cells [2]; 10f 1.0 μM
  G2 phase cells: 17.32%
  cells at the S phase: 40.27%
Bel-7402 cells [2]; 10f 1.5 μM
  G2 phase cells: 8.79%
  cells at the S phase: 48.11%
Bel-7402 cells [2]; 10f 2.0 μM
  G2 phase cells: 6.02%
  cells at the S phase: 53.34%
MGC-803 cells; Homo sapiens, MGC-803, MTT, 72 h, mean ± S.D. of three experiments
  IC50: 1180 ± 100 nM
MGC-803 cells; IC50 compared with 1
  fold stronger than 1, MGC-803: 3.8 fold
MGC-803 cells; IC50 compared with 9
  fold stronger than 9, MGC-803: 3.9 fold
L-02 normal liver cells; MTT, 72 h, mean ± S.D. of three experiments, read-out: antiproliferative activity IC50, L-02
  IC50: 29900 ± 1400 nM
L-02 normal liver cells; selectivity between tumor and normal liver cells
  SI (selectivity index): 36.9
[3]
  anti-apoptotic Bcl-2 expression: downregulation
  expression of proapoptotic caspase-3, -8, -9, Bax, FAS, and cytochrome c: upregulation
CaEs-17 cells; Homo sapiens, CaEs17, MTT, 72 h, mean ± S.D. of three experiments
  IC50: 3770 ± 300 nM
CaEs-17 cells; IC50 compared with 1
  fold stronger than 1, CaEs-17: 1.9 fold
CaEs-17 cells; IC50 compared with 9
  fold stronger than 9, CaEs-17: 5.3 fold
Bel-7402 cells [4]; Homo sapiens, Bel-7402, MTT, 72 h, mean ± S.D. of three experiments
  IC50: 810 ± 60 nM
Bel-7402 cells [4]; IC50 compared with 1
  fold stronger than 1, Bel-7402: 8.2 fold
Bel-7402 cells [4]; IC50 compared with 9
  fold stronger than 9, Bel-7402: 18.7 fold
Bel-7402 cells [5]; 10f 0.5 μM
  cells with collapsed mitochondrial membrane potentials: 17.76%
Bel-7402 cells [5]; 10f 1.5 μM
  cells with collapsed mitochondrial membrane potentials: 33.44%
Bel-7402 cells [5]; 10f 2.0 μM
  cells with collapsed mitochondrial membrane potentials: 47.63%
K562 cells; Homo sapiens, K562, MTT, 72 h, mean ± S.D. of three experiments
  IC50: 1730 ± 40 nM
K562 cells; IC50 compared with 1
  fold stronger than 1, K562: 1.8 fold
